Patent US8008464B2, “SSX-4 peptides presented by HLA class II molecules” (Ludwig Institute for Cancer Research Ltd., priority 2004, dated 2011)

System: circulating CD4+ T cells from melanoma patients and healthy donors
Assay: Intracellular IFN-γ staining of in vitro stimulated CD4+ T cell cultures (flow cytometry)
Format: cell-based, human
Conditions: after second cycle of in vitro stimulation with SSX-4 peptide pool
Method: In vitro stimulation of SSX-4 specific T cells was carried out as described previously (Ayyoub, M., et al., 2004, An immunodominant SSX-2-derived epitope recognized by CD4+ T cells in association with HLA-DR, J Clin Invest, 113:1225-1233). Briefly, 1 to 2×10^6 CD4^+ T cells highly enriched (>90%) from PBMC by magnetic cell sorting using a miniMACS magnetic cell separator device (Miltenyi Biotec, Auburn, Calif., USA) were stimulated with autologous antigen presenting cells in the presence of a pool of partially overlapping peptides spanning the entire SSX-4 protein sequence (2 μM each). Two weeks later the culture was tested using the same peptide pool or individual peptides from the pool, as indicated. CD4^+ T cells secreting IFN-γ in response to peptide stimulation were isolated by cytokine guided magnetic cell sorting using the cytokine secretion detection kit (Miltenyi Biotec) and cloned by limiting dilution culture in the presence of PHA (Sigma, St Louis, Mo., USA), allogeneic irradiated PBMC and rhIL-2 as described (Ayyoub, M., et al., 2004, J Clin Invest, 113:1225-1233). Clones were subsequently expanded by periodic (3-4 weeks) stimulation under the same conditions.
For intracellular cytokine secretion detection, T cells were stimulated in the absence or in the presence of peptides at the indicated dose during 4 h as described previously (Ayyoub, M., et al., 2004, J Clin Invest, 113:1225-1233). One hour after the beginning of the incubation, Brefeldin A (10 μg/ml, Sigma) was added to inhibit cytokine secretion. After incubation, cells were stained with anti-CD4 mAb (Becton Dickinson, San Diego, Calif., USA) for 20 min at 4° C. and fixed using formaldehyde, permeabilized with saponine (Sigma, 0.1% in PBS 5% FCS), stained with anti IFN-γ mAb (BD Pharmingen, San Diego, Calif., USA) and analyzed by flow cytometry. Data analysis was performed using Cell Quest software. IFN-γ secretion was assessed as described (Ayyoub, M., et al., 2004, J Clin Invest, 113:1225-1233). T cells (10,000) were incubated in the absence or in the presence of peptides at the indicated dose in 96-well round-bottom plates in 200 μl/well of medium. Where indicated, APC (EBV-B cells, 10,000/well) preincubated or not with antigen and extensively washed, were added. In some experiments tumor cells were used as APC. Where indicated, tumor cells were transiently transfected with SSX-4 cDNA, cloned into pcDNA3.1 vector, using FUGENE (reagent for transferring nucleic acid inside cells) according to the manufacturer's instructions (Roche Diagnostics, Indianapolis, Ind., USA). After 24 h incubation at 37° C., culture supernatants were collected and the content of IFNI determined by ELISA (BioSource International, Camarillo, Calif., USA).
We analyzed CD4^+ T cell responses to SSX-4 in circulating lymphocytes from 4 melanoma patients with detectable SSX-4 expression in the autologous tumor sample and/or autologous tumor line. CD4^+ T cells were isolated from patients' PBMC by magnetic cell sorting and stimulated in vitro with a pool containing 20 amino acid long peptides overlapping by 10 amino acids and spanning the SSX-4 protein sequence, in the presence of irradiated autologous antigen presenting cells (APC). As internal control, PBMC samples from 4 healthy donors were processed and stimulated under the same conditions. Cultures were tested using the SSX-4 peptide pool for the presence of specific, IFNI secreting CD4^+ T cells, by staining with IFN-γ and CD4-specific monoclonal antibodies (FIG. 1A). After the first cycle of in vitro stimulation (Table 1) no clear responses were detectable in patients' samples, although the proportion of IFN-γ secreting CD4^+ T cells was 2 to 3 fold higher in the presence than in the absence of the peptide pool in the case of 3/4 patients. In contrast, after the second cycle of in vitro stimulation, specific responses to the SSX-4 peptide pool were clearly detected for 3/4 patients. […]

[1] = patient LAU 14, no peptide 0.03
[2] = patient LAU 97, no peptide 0.02

## SSX-4 71-90: 20 amino acid long peptide of the overlapping pool, SSX-4 residues 71-90 (MRSKRAADFHGNDFGNDRNH; UniProt O60224 71-90, looked up, fragment)
Patient 331, no peptide 0.03
  percent of CD4+ IFN-γ secreting cells: 0.05%
[1]
  percent of CD4+ IFN-γ secreting cells: 0.03%
[2]
  percent of CD4+ IFN-γ secreting cells: <0.01%

## SSX-4 131-150: 20 amino acid long peptide of the overlapping pool, SSX-4 residues 131-150 (GPQNDGKQLCPPGNPSTLEK; UniProt O60224 131-150, looked up, fragment)
Patient 331, no peptide 0.03
  percent of CD4+ IFN-γ secreting cells: 0.02%
[1]
  percent of CD4+ IFN-γ secreting cells: 0.01%
[2]
  percent of CD4+ IFN-γ secreting cells: <0.01%

## SSX-4 1-20: 20 amino acid long peptide of the overlapping pool, SSX-4 residues 1-20 (MNGDDAFARRPRDDAQISEK; UniProt O60224 1-20, looked up, fragment)
Patient 331, no peptide 0.03
  percent of CD4+ IFN-γ secreting cells: <0.01%
[1]
  percent of CD4+ IFN-γ secreting cells: 0.07%
[2]
  percent of CD4+ IFN-γ secreting cells: <0.01%

## SSX-4 171-188: C-terminal peptide of the overlapping pool, SSX-4 residues 171-188 (RKQLVVYEEISDPEEDDE; UniProt O60224 171-188, looked up, fragment)
Patient 331, no peptide 0.03
  percent of CD4+ IFN-γ secreting cells: 0.02%
[1]
  percent of CD4+ IFN-γ secreting cells: <0.01%
[2]
  percent of CD4+ IFN-γ secreting cells: 0.01%

## SSX-4 141-160: 20 amino acid long peptide of the overlapping pool, SSX-4 residues 141-160 (PPGNPSTLEKINKTSGPKRG; UniProt O60224 141-160, looked up, fragment)
Patient 331, no peptide 0.03
  percent of CD4+ IFN-γ secreting cells: 0.01%
[1]
  percent of CD4+ IFN-γ secreting cells: 0.03%
[2]
  percent of CD4+ IFN-γ secreting cells: <0.01%

## SSX-4 111-130: 20 amino acid long peptide of the overlapping pool, SSX-4 residues 111-130 (IMPKKPAEEENGLKEVPEAS; UniProt O60224 111-130, looked up, fragment)
Patient 331, no peptide 0.03
  percent of CD4+ IFN-γ secreting cells: 0.01%
[1]
  percent of CD4+ IFN-γ secreting cells: 0.01%
[2]
  percent of CD4+ IFN-γ secreting cells: <0.01%

## SSX-4 91-110: 20 amino acid long peptide of the overlapping pool, SSX-4 residues 91-110 (RNQVERPQMTFGSLQRIFPK; UniProt O60224 91-110, looked up, fragment)
Patient 331, no peptide 0.03
  percent of CD4+ IFN-γ secreting cells: 0.02%
[1]
  percent of CD4+ IFN-γ secreting cells: 0.03%
[2]
  percent of CD4+ IFN-γ secreting cells: <0.01%

## SSX-4 121-140: 20 amino acid long peptide of the overlapping pool, SSX-4 residues 121-140 (NGLKEVPEASGPQNDGKQLC; UniProt O60224 121-140, looked up, fragment)
Patient 331, no peptide 0.03
  percent of CD4+ IFN-γ secreting cells: 0.01%
[1]
  percent of CD4+ IFN-γ secreting cells: <0.01%
[2]
  percent of CD4+ IFN-γ secreting cells: <0.01%

## SSX-4 81-100: 20 amino acid long peptide of the overlapping pool, SSX-4 residues 81-100 (GNDFGNDRNHRNQVERPQMT; UniProt O60224 81-100, looked up, fragment)
Patient 331, no peptide 0.03
  percent of CD4+ IFN-γ secreting cells: 0.02%
[1]
  percent of CD4+ IFN-γ secreting cells: <0.01%
[2]
  percent of CD4+ IFN-γ secreting cells: 0.02%

## SSX-4 21-40: 20 amino acid long peptide of the overlapping pool, SSX-4 residues 21-40 (LRKAFDDIAKYFSKKEWEKM; UniProt O60224 21-40, looked up, fragment)
Patient 331, no peptide 0.03
  percent of CD4+ IFN-γ secreting cells: 0.02%
[1]
  percent of CD4+ IFN-γ secreting cells: 0.04%
[2]
  percent of CD4+ IFN-γ secreting cells: <0.01%

## SSX-4 11-30: 20 amino acid long peptide of the overlapping pool, SSX-4 residues 11-30 (PRDDAQISEKLRKAFDDIAK; UniProt O60224 11-30, looked up, fragment)
Patient 331, no peptide 0.03
  percent of CD4+ IFN-γ secreting cells: 0.02%
[1]
  percent of CD4+ IFN-γ secreting cells: <0.01%
[2]
  percent of CD4+ IFN-γ secreting cells: <0.01%
